Measured values taken from patent US20230312587A1, “PTERIDINONE COMPOUNDS AND USES THEREOF” (Vertex Pharmaceutical Incorporated, priority 2018, published 2023).

Columns and labels:
[1] = system: β-catenin-TCF-mediated reporter transcription activity in Colo 205 cells; test: Colo 205 reporter assay (TCF/LEF luciferase); type: cell-based; conditions: Colo 205 TCF/LEF luciferase reporter, five hours after addition of compound; read-out: TCF reporter Colo205 IC50
In short: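 Luciferase signal from a TCF/LEF-driven reporter, stably integrated in Colo 205 colon cancer cells, was measured 5 h after compound addition.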

[2] = biological target: HEK293 membranes over-expressing WFS-1 (Homo sapiens (Human), UniProt O76024); test: Radioligand displacement assay (tritiated Compound 136 probe); type: binding; conditions: displacement of tritiated Compound 136
In short: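 WFS-1-overexpressing HEK293 membranes were preincubated 10 min with compound, then tritiated probe was added for 90 min at room temperature. Bound probe was collected by filtration on PEI-pretreated GF/B filters, washed and scintillation-counted. IC50 came from a 3-parameter fit of bound probe vs compound concentration.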

HEK293 membranes over-expressing WFS-1, sequence (O76024 whole entry): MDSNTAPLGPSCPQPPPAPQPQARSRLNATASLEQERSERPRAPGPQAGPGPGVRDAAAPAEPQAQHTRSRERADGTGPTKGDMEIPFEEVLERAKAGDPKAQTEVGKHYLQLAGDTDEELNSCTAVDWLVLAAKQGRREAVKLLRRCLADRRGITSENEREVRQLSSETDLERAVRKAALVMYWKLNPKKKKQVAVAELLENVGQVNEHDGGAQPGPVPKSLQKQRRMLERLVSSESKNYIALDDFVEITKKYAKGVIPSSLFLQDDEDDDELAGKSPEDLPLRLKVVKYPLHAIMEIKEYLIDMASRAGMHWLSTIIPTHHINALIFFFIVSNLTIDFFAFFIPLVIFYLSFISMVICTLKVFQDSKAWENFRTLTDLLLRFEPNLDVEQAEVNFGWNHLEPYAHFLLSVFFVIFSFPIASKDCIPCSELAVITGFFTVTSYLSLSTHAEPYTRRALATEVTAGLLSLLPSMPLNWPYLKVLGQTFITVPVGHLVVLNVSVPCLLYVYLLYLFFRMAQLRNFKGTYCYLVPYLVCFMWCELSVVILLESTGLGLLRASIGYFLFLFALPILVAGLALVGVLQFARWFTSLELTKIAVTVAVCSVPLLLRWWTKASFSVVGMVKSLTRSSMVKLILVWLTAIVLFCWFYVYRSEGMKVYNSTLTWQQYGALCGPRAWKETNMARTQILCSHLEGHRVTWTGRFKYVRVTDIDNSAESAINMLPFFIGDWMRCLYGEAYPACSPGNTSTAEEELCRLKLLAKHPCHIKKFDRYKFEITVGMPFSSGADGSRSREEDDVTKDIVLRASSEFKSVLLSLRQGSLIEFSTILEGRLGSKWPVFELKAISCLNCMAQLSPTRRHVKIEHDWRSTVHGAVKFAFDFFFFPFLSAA

Substance	IC50 [1]	IC50 [2]
(7S)-2-(((1-((6-fluoro-2-isopropylpyridin-3-yl)methyl)-1H-pyrazol-4-yl)methyl)(methyl)amino)-7-isopropyl-4,8-dimethyl-7,8-dihydropteridin-6(5H)-one [Compound 430]	< 0.3 µM	< 0.06 µM
(7S)-4,7,8-trimethyl-2-((trans-3-(3,4-difluorophenoxy)cyclobutyl)amino)-7,8-dihydropteridin-6(5H)-one [Compound 251]	0.3 to 1 µM	0.06 to 0.6 µM
